From patent US7109243B2 (IRM LLC, priority 2003, dated 2006)

Experiments:
Cathepsin K = molecular target: T1, Cathepsin K (Homo sapiens, UniProt P43235); experiment: Cathepsin K inhibition assay (fluorogenic peptide substrate); selectivity ratio vs cathepsin S; type: biochemical; conditions: ratio of cathepsin K inhibition constant to cathepsin S inhibition constant; Table II
T1 sequence (P43235 115-329): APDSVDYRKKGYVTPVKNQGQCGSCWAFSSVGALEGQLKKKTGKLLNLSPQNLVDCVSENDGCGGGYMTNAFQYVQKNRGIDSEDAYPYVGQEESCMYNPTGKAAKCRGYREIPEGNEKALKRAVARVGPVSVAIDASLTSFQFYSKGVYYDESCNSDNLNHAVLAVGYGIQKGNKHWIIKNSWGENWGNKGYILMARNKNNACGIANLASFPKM
Outline: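 Inhibition constants for competitive inhibitors come from apparent values fitted to enzyme progress curves. Substrate, acetyl-Lys-His-Pro-Lys-aminocarbamoylcoumarin (40 μM final), starts the reaction; fluorescence rise read at 380 nm excitation, 450 nm emission. Selectivity ratio: other cathepsin constant over cathepsin S constant.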

Cathepsin S = Cathepsin S (Homo sapiens, UniProt P25774); experiment: Cathepsin S inhibition assay (fluorogenic peptide substrate); type: biochemical; conditions: Table II, compounds of Formula I; read-out: Ki Cat. S
Chain of Cathepsin S (P25774 115-331, species assumed): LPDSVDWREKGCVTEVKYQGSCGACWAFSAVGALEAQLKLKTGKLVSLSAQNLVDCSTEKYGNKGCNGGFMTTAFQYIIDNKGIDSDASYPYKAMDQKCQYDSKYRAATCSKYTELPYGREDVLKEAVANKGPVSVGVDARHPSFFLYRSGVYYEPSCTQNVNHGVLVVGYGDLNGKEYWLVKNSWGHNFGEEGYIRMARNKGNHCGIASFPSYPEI
Outline: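 Ki values come from nonlinear fitting of inhibited hydrolysis rates, taking free and total inhibitor concentrations as equal. Rates measured as rising fluorescence at 380/450 nm after reaction start with 50 μM final acetyl-HPVK-aminocarbamoylcoumarin.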

| Structure (SMILES) | Selectivity for Cat. S over Cat. K (Cathepsin K) | Ki (Cathepsin S) |
| --- | --- | --- |
| Cc1cc(C)nc(N2CCC(C(=O)N[C@@H](CC3CCCCC3)C(=O)NCCNc3ccc(OC(F)(F)F)cc3)CC2)n1 [Compound 72, 1-(4,6-Dimethyl-pyrimidin-2-yl)-piperidine-4-carboxylic acid (S)-{2-cyclohexyl-1-[2-(4-trifluoromethoxy-phenylamino)-ethylcarbamoyl]-ethyl}-amide] | ++ (++, >100) | < 10000 nM |
| C[C@@H](C(=O)N[C@@H](CC1CCCCC1)C(=O)NCCNc1ccc(F)cc1)c1ccccc1 [Compound 315, N-{2-cyclohexyl-1-(S)-[2-(4-fluoro-phenylamino)-ethylcarbamoyl]-ethyl}-2-(R)-phenyl-propionamide] | ++ (++, >100) | < 100 nM |
| O=C(Cc1c[nH]c2ccccc12)NC(CC1CCCCC1)C(=O)NCCNc1ccc(F)cc1 (stereo not shown) [Compound 83, 3-Cyclohexyl-N-[2-(4-fluoro-phenylamino)-ethyl]-2-(2-1H-indol-3-yl-acetylamino)-propionamide] | ++ (++, >100) | < 100 nM |
| O=C(Cc1ccccc1)N[C@@H](CC1CCCCC1)C(=O)NCCNc1ccc(F)cc1 [Compound 303, 3-Cyclohexyl-N-[2-(4-fluoro-phenylamino)-ethyl]-2-(S)-phenylacetylamino-propionamide] | ++ (++, >100) | < 100 nM |
| CS(=O)(=O)c1cccc(C(=O)N[C@@H](CC2CCCCC2)C(=O)NCCNc2ccc(F)cc2)c1 [Compound 296, N-(S)-{2-cyclohexyl-1-[2-(4-fluoro-phenylamino)-ethylcarbamoyl]-ethyl}-3-methanesulfonyl-benzamide] | +++ (+++, >1000) | < 100 nM |
| O=C(Cc1cccc(Cl)c1)N[C@@H](CC1CCCCC1)C(=O)NCCNc1ccc(F)cc1 [Compound 302, 2-(S)-[2-(3-Chloro-phenyl)-acetylamino]-3-cyclohexyl-N-[2-(4-fluoro-phenylamino)-ethyl]-propionamide] | ++ (++, >100) | < 100 nM |
| COc1ccc(NCCNC(=O)[C@H](CCC2CCCCC2)NC(=O)c2sc(N)nc2C)cc1 [Compound 133, (S)-2-Amino-4-methyl-thiazole-5-carboxylic acid {3-cyclohexyl-1-[2-(4-methoxy-phenylamino)-ethylcarbamoyl]-propyl}-amide] | ++ (++, >100) | < 1000 nM |
| COc1ccc(NCCNC(=O)[C@H](CC2CCCCC2)NC(=O)c2ccc3nc(N)sc3c2)cc1 [Compound 187, (S)-2-Amino-benzothiazole-6-carboxylic acid {2-cyclohexyl-1-[2-(4-methoxy-phenylamino)-ethylcarbamoyl]-ethyl}-amide] | + (+, >10) | < 100 nM |
| O=C(N[C@@H](CC1CCCCC1)C(=O)NCCNc1ccc(OC(F)(F)F)cc1)C1CC(=O)N(Cc2cccs2)C1 (stereo partly drawn) [Compound 38, 5-Oxo-1-thiophen-2-ylmethyl-pyrrolidine-3-carboxylic acid (S)-{2-cyclohexyl-1-[2-(4-trifluoromethoxy-phenylamino)-ethylcarbamoyl]-ethyl}-amide] | ++ (++, >100) | < 100 nM |
| COc1ccc(NCCNC(=O)[C@H](CC2CCCCC2)NC(=O)c2cc3cc(F)ccc3[nH]2)cc1 [Compound 113, (S)-5-Fluoro-1H-indole-2-carboxylic acid {2-cyclohexyl-1-[2-(4-methoxy-phenylamino)-ethylcarbamoyl]-ethyl}-amide] | + (+, >10) | < 100 nM |
| CS(=O)(=O)Nc1cccc(C(=O)N[C@@H](CC2CCCCC2)C(=O)NCCNc2ccc(F)cc2)c1 [Compound 84, N-(S)-{2-cyclohexyl-1-[2-(4-fluoro-phenylamino)-ethylcarbamoyl]-ethyl}-3-methanesulfonylamino-benzamide] | ++ (++, >100) | < 100 nM |
| COc1ccc(NCCNC(=O)[C@H](CC2CCCCC2)NC(=O)c2cccc(C)c2Cl)cc1 [Compound 108, (S)-2-Chloro-N-{2-cyclohexyl-1-[2-(4-methoxy-phenylamino)-ethylcarbamoyl]-ethyl}-3-methyl-benzamide] | ++ (++, >100) | < 100 nM |

More lines, now with the values ahead:

| Selectivity for Cat. S over Cat. K (Cathepsin K) | Ki (Cathepsin S) | Structure (SMILES) |
| --- | --- | --- |
| +++ (+++, >1000) | < 100 nM | COc1ccc(NCCNC(=O)[C@H](CC2CCCCC2)NC(=O)c2ccc(-c3cc(Cl)cc(Cl)c3)cc2)cc1 [Compound 171, (S)-3′, 5′-Dichloro-biphenyl-4-carboxylic acid {2-cyclohexyl-1-[2-(4-methoxy-phenylamino)-ethylcarbamoyl]-ethyl}-amide] |
| + (+, >10) | < 100 nM | COc1ccc(NCCNC(=O)[C@H](Cc2ccccc2Cl)NC(=O)c2ccc(-c3cccc(C(F)(F)F)c3)o2)cc1 [Compound 2, N-((S)-1-(2-(4-methoxyphenylamino)ethylcarbamoyl)-2-(2-chlorophenyl)ethyl)-5-(3-(trifluoromethyl)phenyl)furan-2-carboxamide] |
| +++ (+++, >1000) | < 100 nM | Cc1cccc(-c2ccc(C(=O)N[C@@H](CC3CCCCC3)C(=O)NCCNc3ccc(OC(F)(F)F)cc3)o2)c1 [Compound 51, 5-m-Tolyl-furan-2-carboxylic acid (S)-{2-cyclohexyl-1-[2-(4-trifluoromethoxy-phenylamino)-ethylcarbamoyl]-ethyl}-amide] |
| ++ (++, >100) | < 100 nM | O=C(N[C@@H](CC1CCCCC1)C(=O)NCCNc1ccc(OC(F)(F)F)cc1)c1ccc(-c2ccccc2C(F)(F)F)o1 [Compound 219, (S)-5-(2-Trifluoromethyl-phenyl)-furan-2-carboxylic acid {2-cyclohexyl-1-[2-(4-trifluoromethoxy-phenylamino)-ethylcarbamoyl]-ethyl}-amide] |
| + (+, >10) | < 10000 nM | COc1ccc(NCCNC(=O)[C@H](Cc2ccccc2)NC(=O)Nc2cccc(OC)c2)cc1 [Compound 104, (S)-N-[2-(4-Methoxy-phenylamino)-ethyl]-2-[3-(3-methoxy-phenyl)-ureido]-3-phenyl-propionamide] |
| + (+, >10) | < 1000 nM | COc1ccc(NCCNC(=O)[C@H](Cc2ccccc2)NC(=O)Nc2ccccc2C)cc1 [Compound 97, (S)-N-[2-(4-Methoxy-phenylamino)-ethyl]-3-phenyl-2-(3-o-tolyl-ureido)-propionamide] |
| +++ (+++, >1000) | < 100 nM | COc1ccc(NCCNC(=O)[C@H](CCC2CCCCC2)NC(=O)c2cccc(C(F)(F)F)c2)cc1 [Compound 126, (S)-N-{3-Cyclohexyl-1-[2-(4-methoxy-phenylamino)-ethylcarbamoyl]-propyl}-3-trifluoromethyl-benzamide] |
| +++ (+++, >1000) | < 100 nM | COc1ccc(NCCNC(=O)[C@H](Cc2cccc(C(F)(F)F)c2)NC(=O)c2cccc(C)c2)cc1 [Compound 252, (S)-N-[1-[2-(4-Methoxy-phenylamino)-ethylcarbamoyl]-2-(3-trifluoromethyl-phenyl)-ethyl]-3-methyl-benzamide] |
| + (+, >10) | < 1000 nM | COc1ccc2[nH]c(C(=O)N[C@@H](CC3CCCCC3)C(=O)NCCNc3ccc(OC(F)(F)F)cc3)cc2c1 [Compound 22, 5-Methoxy-1H-indole-2-carboxylic acid (S)-{2-cyclohexyl-1-[2-(4-trifluoromethoxy-phenylamino)-ethylcarbamoyl]-ethyl}-amide] |
| +++ (+++, >1000) | < 100 nM | COc1ccc(NCCNC(=O)[C@H](Cc2ccc(-c3ccc(OC)nc3)cc2)NC(=O)c2cccc(C)c2)cc1 [Compound 292, (S)-N-{1-[2-(4-Methoxy-phenylamino)-ethylcarbamoyl]-2-[4-(6-methoxy-pyridin-3-yl)-phenyl]-ethyl}-3-methyl-benzamide] |
| + (+, >10) | < 1000 nM | COc1ccc(NCCNC(=O)[C@H](Cc2ccccc2)NC(=O)Nc2cccc3ccccc23)cc1 [Compound 101, (S)-N-[2-(4-Methoxy-phenylamino)-ethyl]-2-(3-naphthalen-1-yl-ureido)-3-phenyl-propionamide] |
| +++ (+++, >1000) | < 100 nM | O=C(N[C@@H](CC1CCCCC1)C(=O)NCCNc1ccc(OC(F)(F)F)cc1)c1ccc(-c2cccc(C(F)(F)F)c2)s1 [Compound 50, 5-(3-Trifluoromethyl-phenyl)-thiophene-2-carboxylic acid (S)-{2-cyclohexyl-1-[2-(4-trifluoromethoxy-phenylamino)-ethylcarbamoyl]-ethyl}-amide] |
| ++ (++, >100) | < 100 nM | O=C(N[C@@H](CC1CCCCC1)C(=O)NCCNc1ccc(F)cc1)c1ccc(-c2ccc(F)cc2)o1 [Compound 322, 5-(4-Fluoro-phenyl)-furan-2-carboxylic acid (S)-{2-cyclohexyl-1-[2-(4-fluoro-phenylamino)-ethylcarbamoyl]-ethyl}-amide] |
| ++ (++, >100) | < 1000 nM | COc1ccc(NCCNC(=O)[C@H](Cc2ccc(-c3cnc(OC)nc3OC)cc2)NC(=O)c2cccc(C)c2)cc1 [Compound 291, (S)-N-{2-[4-(2,4-Dimethoxy-pyrimidin-5-yl)-phenyl]-1-[2-(4-methoxy-phenylamino)-ethylcarbamoyl]-ethyl}-3-methyl-benzamide] |
